{"source": "patent US9174998B2", "about": "“(6S,9aS)-N-benzyl-6-[(4-hydroxyphenyl)methyl]-4,7-dioxo-8-({6-[3-(piperazin-1-yl)azetidin-1-yl]pyridin-2-yl}methyl)-2-(prop-2-en-1-yl)-octahydro-1H-pyrazino[2,1-c][1,2,4]triazine-1-carboxamide compound” (Eisai R&D Management Co., Ltd., priority 2013, dated 2015)", "key": {"[1]": {"test": "Evaluation of solubility (DMSO stock into PBS, HPLC-UV)", "format": "physicochemical", "conditions": "aqueous buffer, kinetic from dmso stock; Dulbecco's phosphate-buffered saline pH 7, room temperature, about 15 minutes shaking; values greater than 200 μM regarded as 200 μM; read-out: Test Example 3 solubility", "method_in_brief": "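Kinetic solubility: 20 mM DMSO stock spiked into Dulbecco's PBS pH 7, shaken about 15 min at room temperature, then suction-filtered; filtrate quantified by HPLC-UV against a 200 μM DMSO standard. Values above 200 μM are capped at 200 μM.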"}, "[2]": {"test": "Evaluation of metabolic stability", "format": "in vitro ADME, human", "conditions": "0.2 mg/mL HLM, 0.1 μM test substance, 15 minutes at 37° C., with vs without NADPH production", "method_in_brief": "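Pooled human liver microsomes (0.2 mg/mL) in 0.1 M potassium phosphate pH 7.4 with EDTA, MgCl2 and an NADPH-generating system (NADP+, glucose-6-phosphate, G6PDH). Residual ratio by LC-MS/MS, comparing with versus without NADPH generation.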"}, "[3]": {"test": "PAMPA test (parallel artificial membrane permeability assay)", "format": "in vitro ADME", "conditions": "phosphate buffer pH 6.8, about 200 μM, about 5 hours, room temperature, read-out: Test Example 4 membrane permeation coefficient Pe", "method_in_brief": "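Compounds at about 200 μM in pH 6.8 phosphate buffer with about 1% DMSO on the donor side. Transport across a lipid-precoated PVDF membrane with shaking at 350 rpm, room temperature, about 5 h. Donor and acceptor concentrations measured by HPLC-UV; Pe (cm/s) calculated from these.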"}, "Wnt signal": {"tested_on": "Wnt signal", "test": "Detection of Wnt signal (TOPglow luciferase reporter, LiCl-stimulated)", "format": "cell-based", "conditions": "Homo sapiens; HEK293 clone carrying pNeo-TOP reporter; LiCl stimulation; luciferase luminescence; read-out: Test Example 1 IC50 (concentration required for inhibiting the Wnt signal activity by 50%)", "method_in_brief": "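Stable HEK293 clone carrying a TOPglow TCF/Wnt-responsive luciferase reporter, stimulated with 80 mM LiCl in the diluted sample medium alongside compound; luminescence read with Bright-Glo 6 h after addition. IC50 derived from activity scaled between LiCl-only wells (100%) and wells lacking both LiCl and sample (0%).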"}}, "data": [{"smiles": "C=CCN1CC(=O)N2[C@@H](Cc3ccc(O)cc3)C(=O)N(Cc3cccc(N4CC(N5CCN(C)[C@@H](C)C5)C4)n3)C[C@@H]2N1C(=O)NCc1ccccc1", "note": "[Example 27, (6S,9aS)-N-Benzyl-8-((6-(3-((3S)-3,4-dimethylpiperazin-1-yl)azetidin-1-yl)pyridin-2-yl)methyl)-6-((4-hydroxyphenyl)methyl)-4,7-dioxo-2-(prop-2-en-1-yl)-octahydro-1H-pyrazino[2,1-c][1,2,4]triazine-1-carboxamide]", "values": [{"measurement": "solubility", "setting": "[1]", "value": 199, "unit": "µM"}, {"measurement": "Test Example 2 residual ratio of the test substance", "setting": "[2]", "value": 57, "unit": "%"}, {"measurement": "Papp", "setting": "[3]", "value": 1.04, "unit": "×10⁻⁶ cm/s"}, {"measurement": "IC50", "setting": "Wnt signal", "value": 400, "unit": "nM"}]}, {"smiles": "C=CCN1CC(=O)N2[C@@H](Cc3ccc(O)cc3)C(=O)N(Cc3cccc(N4CC(N5CCN(C)[C@H](C)C5)C4)n3)C[C@@H]2N1C(=O)NCc1ccccc1", "note": "[Example 28, (6S,9aS)-N-Benzyl-8-((6-(3-((3R)-3,4-dimethylpiperazin-1-yl)azetidin-1-yl)pyridin-2-yl)methyl)-6-((4-hydroxyphenyl)methyl)-4,7-dioxo-2-(prop-2-en-1-yl)-octahydro-1H-pyrazino[2,1-c][1,2,4]triazine-1-carboxamide]", "values": [{"measurement": "solubility", "setting": "[1]", "value": 198, "unit": "µM"}, {"measurement": "Test Example 2 residual ratio of the test substance", "setting": "[2]", "value": 55, "unit": "%"}, {"measurement": "Papp", "setting": "[3]", "value": 0.95, "unit": "×10⁻⁶ cm/s"}, {"measurement": "IC50", "setting": "Wnt signal", "value": 380, "unit": "nM"}]}, {"smiles": "C=CCN1CC(=O)N2[C@@H](Cc3ccc(O)cc3)C(=O)N(Cc3ccc(F)c(N4CC(N5CCC(N(C)C)CC5)C4)n3)C[C@@H]2N1C(=O)NCc1ccccc1", "note": "[Reference Example 1, (6S,9aS)-N-Benzyl-8-((6-(3-(4-(dimethylamino)piperidin-1-yl)azetidin-1-yl)-5-fluoropyridin-2-yl)methyl)-6-((4-hydroxyphenyl)methyl)-4,7-dioxo-2-(prop-2-en-1-yl)-octahydro-1H-pyrazino[2,1-c][1,2,4]triazine-1-carboxamide]", "values": [{"measurement": "solubility", "setting": "[1]", "value": 193, "unit": "µM"}, {"measurement": "Test Example 2 residual ratio of the test substance", "setting": "[2]", "value": 54, "unit": "%"}, {"measurement": "Papp", "setting": "[3]", "value": 0.62, "unit": "×10⁻⁶ cm/s"}, {"measurement": "IC50", "setting": "Wnt signal", "value": 240, "unit": "nM"}]}, {"smiles": "C=CCN1CC(=O)N2[C@@H](Cc3ccc(O)cc3F)C(=O)N(Cc3cccc(N4CC(N5CC[C@@H](N(C)C)C5)C4)n3)C[C@@H]2N1C(=O)NCc1ccccc1", "note": "[Reference Example 2, (6S,9aS)-N-Benzyl-8-((6-(3-((3R)-3-(dimethylamino)pyrrolidin-1-yl)azetidin-1-yl)pyridin-2-yl)methyl)-6-((2-fluoro-4-hydroxyphenyl)methyl)-4,7-dioxo-2-(prop-2-en-1-yl)-octahydro-1H-pyrazino[2,1-c][1,2,4]triazine-1-carboxamide]", "values": [{"measurement": "solubility", "setting": "[1]", "value": 195, "unit": "µM"}, {"measurement": "Test Example 2 residual ratio of the test substance", "setting": "[2]", "value": 51, "unit": "%"}, {"measurement": "Papp", "setting": "[3]", "value": 0.65, "unit": "×10⁻⁶ cm/s"}, {"measurement": "IC50", "setting": "Wnt signal", "value": 330, "unit": "nM"}]}, {"smiles": "C=CCN1CC(=O)N2[C@@H](Cc3ccc(O)cc3F)C(=O)N(Cc3ccc(F)c(N4CC(N5CCC(N(C)C)CC5)C4)n3)C[C@@H]2N1C(=O)NCc1ccccc1", "note": "[Reference Example 3, (6S,9aS)-N-Benzyl-8-((6-(3-(4-(dimethylamino)piperidin-1-yl)azetidin-1-yl)-5-fluoropyridin-2-yl)methyl)-6-((2-fluoro-4-hydroxyphenyl)methyl)-4,7-dioxo-2-(prop-2-en-1-yl)-octahydro-1H-pyrazino[2,1-c][1,2,4]triazine-1-carboxamide]", "values": [{"measurement": "solubility", "setting": "[1]", "value": 199, "unit": "µM"}, {"measurement": "Test Example 2 residual ratio of the test substance", "setting": "[2]", "value": 50, "unit": "%"}, {"measurement": "Papp", "setting": "[3]", "value": 0.55, "unit": "×10⁻⁶ cm/s"}, {"measurement": "IC50", "setting": "Wnt signal", "value": 110, "unit": "nM"}]}, {"smiles": "C=CCN1CC(=O)N2[C@@H](Cc3ccc(O)cc3F)C(=O)N(Cc3ccc(F)c(N4CC(N5C[C@@H]6C[C@H]5CN6C(C)C)C4)n3)C[C@@H]2N1C(=O)NCc1ccccc1", "note": "[Reference Example 4, (6S,9aS)-N-Benzyl-6-((2-fluoro-4-hydroxyphenyl)methyl)-8-((5-fluoro-6-(3-((1S,4S)-5-(propan-2-yl)-2,5-diazabicyclo[2.2.1]heptan-2-yl)azetidin-1-yl)pyridin-2-yl)methyl)-4,7-dioxo-2-(prop-2-en-1-yl)-octahydro-1H-pyrazino[2,1-c][1,2,4]triazine-1-carboxamide]", "values": [{"measurement": "solubility", "setting": "[1]", "value": 198, "unit": "µM"}, {"measurement": "Test Example 2 residual ratio of the test substance", "setting": "[2]", "value": 34, "unit": "%"}, {"measurement": "Papp", "setting": "[3]", "value": 0.68, "unit": "×10⁻⁶ cm/s"}, {"measurement": "IC50", "setting": "Wnt signal", "value": 150, "unit": "nM"}]}]}
